From US5019647A, “Gastrin releasing peptide antagonist” (Merck & Co., Inc., priority 1988, dated 1991)
pIC50: −log10 of the molar value. Residues, ends and D or L forms follow the SMILES beside them. *: point of attachment. X1 = CCOC[C@H](CC(C)C)N*

What was measured:
[1] = target: T1, GRP receptor on SCLC (Homo sapiens, UniProt P30550); experiment: Procedure D: Stimulation of Ca2+ Release in SCLC (Fura-2 fluorescence, GRP 14-27 challenge); assay type: cell-based; conditions: H345 SCLC cells; 100 nM GRP14-27; read-out: blocks the Ca2+ response elicited by GRP14-27, IC50
T1 construct: approximately 1×10^8 H345 SCLC cells; endogenous in cells; host or cells: H345 SCLC cells
Experimental: Following the procedure of Heikkila et al., J Biol. Chem. 262 16456 (1987), approximately 1×10^8 H345 SCLC cells, maintained in RPMI-1640 (Ro) medium supplemented with selenium, insulin, and transferrin, were harvested by settling and washed with Ro. They were then resuspended in 2 ml Ro, to which 1.2 nmol Fura-2/AM per 10^6 cells was added. After a 15 minute incubation at 37° C., the cells were diluted to 10 ml with Ro and incubated for 1 hour at 37° C., the cells were then centrifuged and resuspended in HEPES-saline (140 mM NaCl, 5mM KCl, 5mM glucose, 1 mM CaCl2, 1 mM MgCl2, 20 mM HEPES, pH 7.4) at a density of 2.5-5×10^6 cells/ml. The cells were kept on ice for up to 2 hours before being used. Ca^2+ measurements were performed at 37° C. in an Aminco SPF-500 fluorimeter. The excitation wavelength was 340 nm, the emission wavelength 510 nm. Two ml of cell suspension was periodically resuspended in a 3 ml plastic cuvette. They were equilibrated at 37° for at least 5 minutes data was collected. After a stable baseline was established, the compound of interest was added, and data was collected for approximately 5 minutes. […] The cells were then lysed with 4 μl 10% Triton X-100 to measure peak fluorescence. Baseline fluorescence was measured after the subsequent addition of 40 μl 2M tris (pH 9.5) and 64 μl 0.2M EGTA.

[2] = tested on: Swiss 3T3 cells; experiment: Procedure C: Mitogenesis Inhibition (GRP-stimulated 3H-thymidine incorporation); assay type: cell-based; conditions: 3 nM human GRP, read-out: blocks mitogenic stimulation of human GRP, IC50
Experimental: (§1) The activity of the peptide derivatives of the present invention as GRP antagonists was determined in competitive binding assays with a radio-active GRP derivative. Swiss 3T3 fibroblasts were used in these tests as the source of GRP receptor. Because these cells respond to GRP binding with a rapid increase in DNA synthesis, compounds that bind to the GRP receptor can also be tested for their ability to stimulate DNA synthesis. New DNA synthesis is one of the early steps in cell division and is widely accepted as a measure of mitogenicity or cell growth. […] Compounds which block DNA synthesis are mitogenic antagonists.
Swiss 3T3 cells were grown in monolayer culture in 24 -well plates (Costar) in serum-free DMEM for 48 hours, at which time the GRP or a GRP homologue, the antagonist and 23 nM ^3 H-thymidine were added. After an additional 48 hours, the cell monolayer was washed twice with PBS, and the cells were then removed with 1 ml 10×trypsin containing 5 mM EDTA. The cells were harvested with a Skatron filter apparatus, and the filters counted in a scintillation counter.

[3] = target: T2, GRP receptor (Mus musculus, UniProt P21729); experiment: Procedure A: Binding Inhibition Studies (competitive binding with [3H-Phe15] GRP15-27); conditions: Swiss 3T3 cells; [3H-Phe15] GRP15-27 at 3 nM; 60 minutes at 15° C.; read-out: blocks binding of the radioligand, IC50
T2 construct: Swiss 3T3 fibroblasts were used in these tests as the source of GRP receptor; endogenous in cells; host or cells: Swiss 3T3 cells (intact confluent monolayers), obtained from Dr. K. Brown
Experimental: as §1
Swiss 3T3 cells, obtained from Dr. K. Brown (Institute of Animal Physiology, Cambridge, U.K.), were grown to confluency in Costar 12 well plates containing DMEM (Gibco) supplemented with 10% fetal bovine serum, 2 mM glutamine and 1% penicillin-streptomycin. The cells were washed twice with binding buffer [1:1 DMEM: Waymouths MB752/1 medium, plus 1 mg/ml BSA (Fraction V, Calbiochem)]. The antagonist was dissolved in 10 mM HCl, and diluted to the appropriate concentration in binding buffer. The antagonist was then added to the cells, followed by [3H-Phe^15 ] GRP15-27 at a final concentration of 3 nM. […]

T1 sequence (P30550 whole entry): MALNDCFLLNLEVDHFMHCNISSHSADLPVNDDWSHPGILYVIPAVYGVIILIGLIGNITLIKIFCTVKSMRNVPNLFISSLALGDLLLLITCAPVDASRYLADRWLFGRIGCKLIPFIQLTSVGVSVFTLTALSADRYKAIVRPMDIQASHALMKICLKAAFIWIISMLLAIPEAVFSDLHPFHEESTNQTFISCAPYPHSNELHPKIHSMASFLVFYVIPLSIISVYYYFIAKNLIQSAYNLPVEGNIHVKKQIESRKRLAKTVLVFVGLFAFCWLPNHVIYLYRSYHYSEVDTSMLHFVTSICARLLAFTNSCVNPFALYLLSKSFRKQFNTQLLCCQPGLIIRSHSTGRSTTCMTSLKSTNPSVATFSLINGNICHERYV
T2 sequence (P21729 whole entry): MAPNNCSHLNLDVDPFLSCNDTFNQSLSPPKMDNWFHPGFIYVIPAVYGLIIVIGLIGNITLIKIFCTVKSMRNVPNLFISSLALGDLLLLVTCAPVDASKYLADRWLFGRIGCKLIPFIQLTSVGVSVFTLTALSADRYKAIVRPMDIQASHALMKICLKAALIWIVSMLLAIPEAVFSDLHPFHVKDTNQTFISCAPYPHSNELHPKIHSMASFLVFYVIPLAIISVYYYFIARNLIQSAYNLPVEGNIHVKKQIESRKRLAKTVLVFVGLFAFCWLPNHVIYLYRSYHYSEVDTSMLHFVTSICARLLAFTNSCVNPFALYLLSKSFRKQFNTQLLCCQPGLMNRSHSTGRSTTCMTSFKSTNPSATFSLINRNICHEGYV

CCOC[C@H](CC(C)C)NC(=O)[C@H](Cc1c[nH]cn1)NC(=O)CNC(=O)[C@@H](NC(=O)[C@H](C)NC(=O)[C@H](Cc1c[nH]c2ccccc12)NC(=O)[C@H](Cc1c[nH]cn1)NC(C)=O)C(C)C [Example 1, Ac-His-Trp-Ala-Val-Gly-His-NHCHCH2 OCH5] (Ac-HWAVGH-X1)
pIC50 [1]: ~6.52 | pIC50 [2]: ~7.70 | pIC50 [3]: ~8.30
